This is an account of results in US20230212123A1, “Pyridine Inhibitors of Glucosylceramide Synthase and Therapeutic Methods Using the Same” (THE REGENTS OF THE UNIVERSITY OF MICHIGAN, priority 2020, published 2023).

The target in test [1] is T1, GCS in MDCKII cells (Canis lupus familiaris, UniProt A0A8I3MXG6).
T1 construct: whole cellular lipids of wild type MDCKII cells were extracted; endogenous in cells; host or cells: wild type MDCKII cells
T1 sequence (A0A8I3MXG6 1-394): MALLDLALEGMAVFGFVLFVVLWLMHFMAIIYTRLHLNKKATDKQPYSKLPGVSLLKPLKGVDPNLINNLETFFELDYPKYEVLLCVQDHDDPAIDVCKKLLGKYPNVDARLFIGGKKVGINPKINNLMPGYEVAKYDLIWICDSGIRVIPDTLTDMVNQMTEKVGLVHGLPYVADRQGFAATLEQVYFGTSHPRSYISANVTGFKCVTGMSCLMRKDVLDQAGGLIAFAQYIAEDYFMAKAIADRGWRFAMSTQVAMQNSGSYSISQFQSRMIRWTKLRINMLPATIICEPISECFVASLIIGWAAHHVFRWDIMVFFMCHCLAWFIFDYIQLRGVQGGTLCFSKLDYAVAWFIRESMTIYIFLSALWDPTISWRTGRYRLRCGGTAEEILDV
Kind of test: GCS inhibition in MDCKII cells (glucosylceramide content after 24 h). The conditions noted are these: 24 hours exposure, glucosylceramide level. The class given is cell-based, canine. On the procedure: GCS Inhibition in MDCKII Cells (MDCKII IC50, Table 1)
MDCKII cells were routinely maintained in medium consisting of Opti-MEM/F12 (1:1), 5% FBS, 100 U/mL of penicillin, 100 µg/mL streptomycin and 200 mM L-glutamine. MDCKII cells were newly thawed from frozen ampules every two months.
Stock solutions of water-insoluble glycosphingolipid inhibitors (100 mM) were prepared by dissolving each inhibitor into 100% ethanol as previously described (3). The inhibitor-ethanol solutions then were diluted 50X into 2 mM delipidated bovine serum albumin-phosphate buffered saline solution to make water-soluble glycosphingolipid inhibitor-bovine serum albumin complexes. The inhibitor-bovine serum album complexes were sterile-filtered and stored at -20° C. Prior to use, portions of the inhibitor-bovine serum albumin complexes were further diluted with Opti-F12 to make treatment solutions. Equal amounts of bovine serum albumin and ethanol were added into the control cultures. Cells (5 x 10^5) were seeded into 10-cm culture dishes containing 10 ml of Opti-F12 with 5% FBS. After 24 hours, the medium was replaced with fresh serum-free Opti-F12 medium, and cells were exposed to candidate GCS inhibitors at concentrations of 0, 1, 3, 10, 30, 100 and 300 nM for 24 hours.
Following inhibitor treatment, whole cellular lipids of wild type MDCKII cells were extracted as previously described in detail (10). Briefly, cells were washed with ice-cold phosphate buffered saline, fixed by methanol, and collected with rubber scraper. Chloroform was then added to yield a theoretical ratio of chloroform:methanol:water at 1:2:0.8 (v/v/v) to form a mono-phase. Cell debris and proteins were removed by centrifugation at 2200 x g for 30 min. The supernatants were portioned by adding chloroform and 0.9% NaCl. The lower organic phases containing neutral glycosphingolipids lipids were washed with methanol and 0.9% NaCl, and subjected to base- and acid-hydrolysis (10). A portion of purified glycosphingolipids normalized to 100 nmol of total phospholipids was analyzed by high performance thin layer chromatography. The thin layer chromatography separations were processed twice. The plate pretreated with 1% sodium borate was first developed in a solvent system consisting of chloroform/methanol (98/2, v/v). After air drying, the plate was then developed in a solvent system containing chloroform/methanol/water (70/30/4, v/v/v). The levels of glucosylceramide were detected by charring with 8% cupric sulfate in 8% phosphoric acid, and quantified by densitometric scanning using ImageJ, NIH Image. Image data was analyzed, and the IC50 of each inhibitor was calculated using GraphPad Prism (version 5.03).

For test [2], the target named is T2, glucosylceramide synthase (GCS) (Canis lupus familiaris, UniProt A0A8I3MXG6).
T2 construct: endogenous in cells; host or cells: MDCK cell homogenate
T2 sequence (A0A8I3MXG6 1-394): T1 sequence (A0A8I3MXG6 1-394)
Nature of the test: GCS inhibition in MDCK cell homogenates (Lysate IC50). The class given is biochemical, canine. The conditions noted are these: MDCK cell homogenate. The protocol: GCS Inhibition in MDCK Cell Homogenates (Lysate IC50, Table 1)
IC50 values for new compounds of the invention were determined as reported in Shayman J. A., Abe A. 2000. Glucosylceramide synthase: assay and properties. Methods Enzymol.311: 42-49.

As for “2-(2,3-dihydro-1H-inden-2-yl)-N-((1R,2R)-1-hydroxy-1-(6-methoxypyridin-3-yl)-3-(pyrrolidin-1-yl)propan-2-yl)acetamide [Example 1]”, the IC50 in test [1] and in test [2] was above 1000 nM each time.

`O=C(CC1Cc2ccccc2C1)N[C@H](CN1CCCC1)[C@H](O)c1ccc(OC(F)(F)F)cn1` (racemic) [Example 5, 2-(2,3-dihydro-1H-inden-2-yl)-N-((1S,2R)-1-hydroxy-3-(pyrrolidin-1-yl)-1-(5-(trifluoromethoxy)pyridin-2-yl)propan-2-yl)acetamide]: the IC50 (as a rule, the midpoint of a concentration-inhibition curve) in test [1] came out at 6.5 nM; in test [2], 249 nM.

For the molecule `COc1ccc(C(O)[C@@H](CN2CCCC2)NC(=O)CC2Cc3ccccc3C2)nc1` (stereo in doubt) [Example 2, 2-(2,3-dihydro-1H-inden-2-yl)-N-((1R,2R)-1-hydroxy-1-(5-methoxypyridin-2-yl)-3-(pyrrolidin-1-yl)propan-2-yl)acetamide], the results for the IC50 in test [1] and in test [2] were 6.8 nM and 24.8 nM, respectively.

Turning to `O=C(CC1Cc2ccccc2C1)N[C@H](CN1CCCC1)[C@H](O)c1cc(Cl)ccn1` (stereo in doubt) [Example 23, (+/-)-N-(1-(4-chloropyridin-2-yl)-1-hydroxy-3-(pyrrolidin-1-yl)propan-2-yl)-2-(2,3-dihydro-1H-inden-2-yl)acetamide], the IC50 in test [2] was found to be 16.1 nM. This counts as double-digit nanomolar.

For the molecule `O=C(CC1Cc2ccccc2C1)N[C@@H](CN1CCCC1)[C@@H](O)c1cc(Cl)ccn1` (stereo in doubt) [Example 26], the IC50 in test [2] is above 2000 nM.

Take `COc1cccc([C@@H](O)[C@@H](CN2CCCC2)NC(=O)CC2Cc3ccccc3C2)n1` [Example 3, 2-(2,3-dihydro-1H-inden-2-yl)-N-((1S,2R)-1-hydroxy-1-(6-methoxypyridin-2-yl)-3-(pyrrolidin-1-yl)propan-2-yl)acetamide]: the values for the IC50 in test [1] and in test [2] were 30.5 nM and 198 nM, respectively.

As for `O=C(CC1Cc2ccccc2C1)N[C@H](CN1CCCC1)[C@H](O)c1ccccn1` [Example 4, 2-(2,3-dihydro-1H-inden-2-yl)-N-((1S,2R)-1-hydroxy-1-(pyridin-2-yl)-3-(pyrrolidin-1-yl)propan-2-yl)acetamide], the IC50 in test [1] turned out to be 16.9 nM; in test [2], 152 nM.

With `O=C(CC1Cc2ccccc2C1)N[C@H](CN1CCCC1)[C@H](O)c1ccc(OCC(F)(F)F)cn1` [Example 6, 2-(2,3-dihydro-1H-inden-2-yl)-N-((1S,2R)-1-hydroxy-3-(pyrrolidin-1-yl)-1-(5-(2,2,2-trifluoroethoxy)pyridin-2-yl)propan-2-yl)acetamide], the figures for the IC50 in test [1] and in test [2] were 2.4 nM and 21.7 nM, respectively.

`CC(C)(C)Oc1ccc([C@@H](O)[C@@H](CN2CCCC2)NC(=O)CC2Cc3ccccc3C2)nc1` [Example 7, N-((1S,2R)-1-(5-(tert-butoxy)pyridin-2-yl)-1-hydroxy-3-(pyrrolidin-1-yl)propan-2-yl)-2-(2,3-dihydro-1H-inden-2-yl)acetamide]: the IC50 in test [1] amounted to 7.9 nM; in test [2], 16.3 nM.

As to `COc1cc([C@@H](O)[C@@H](CN2CCCC2)NC(=O)CC2Cc3ccccc3C2)ccn1` [Example 8, 2-(2,3-dihydro-1H-inden-2-yl)-N-((1R,2R)-1-hydroxy-1-(2-methoxypyridin-4-yl)-3-(pyrrolidin-1-yl)propan-2-yl)acetamide], the IC50 in test [1] is 94.6 nM; in test [2], 56 nM.

On to `COc1cncc([C@@H](O)[C@@H](CN2CCCC2)NC(=O)CC2Cc3ccccc3C2)c1` [Example 9, 2-(2,3-dihydro-1H-inden-2-yl)-N-((1R,2R)-1-hydroxy-1-(5-methoxypyridin-3-yl)-3-(pyrrolidin-1-yl)propan-2-yl)acetamide], for which the values for the concentration for half-maximal inhibition (IC50) in test [1] and in test [2] were above 1000 nM and above 5000 nM, respectively.

Consider `COc1ccc([C@@H](O)[C@@H](CN2CCCC2)N(C)C(=O)CC2Cc3ccccc3C2)nc1` [Example 10], for which the figures for the IC50 in test [1] and in test [2] were 15.8 nM and 37.4 nM, respectively.

As for `COc1ccc([C@H](O)[C@H](CN2CCCC2)NC(=O)CC2Cc3ccccc3C2)nc1` [Example 11, 2-(2,3-dihydro-1H-inden-2-yl)-N-((1R,2S)-1-hydroxy-1-(5-methoxypyridin-2-yl)-3-(pyrrolidin-1-yl)propan-2-yl)acetamide], the IC50 in test [2] was above 2000 nM.

For `COc1ccnc([C@@H](O)[C@@H](CN2CCCC2)NC(=O)CC2Cc3ccccc3C2)c1` [Example 12, 2-(2,3-dihydro-1H-inden-2-yl)-N-((1S,2R)-1-hydroxy-1-(4-methoxypyridin-2-yl)-3-(pyrrolidin-1-yl)propan-2-yl)acetamide], the IC50 amounted to 79.5 nM in test [1] and 24900 nM in test [2].

Take `O=C(CC1Cc2ccccc2C1)N[C@H](CN1CCCC1)[C@H](O)c1cccnc1` [Example 13, 2-(2,3-dihydro-1H-inden-2-yl)-N-((1R,2R)-1-hydroxy-1-(pyridin-3-yl)-3-(pyrrolidin-1-yl)propan-2-yl)acetamide]: the IC50 in test [1] was 594 nM; in test [2], 182 nM.

With `COc1cccnc1[C@@H](O)[C@@H](CN1CCCC1)NC(=O)CC1Cc2ccccc2C1` [Example 14, 2-(2,3-dihydro-1H-inden-2-yl)-N-((1S,2R)-1-hydroxy-1-(3-methoxypyridin-2-yl)-3-(pyrrolidin-1-yl)propan-2-yl)acetamide], the results for the IC50 in test [1] and in test [2] were 444 nM and above 2000 nM, respectively.

Turning to `COc1ccc([C@@H](O)[C@@H](CN2CC3CC3C2)NC(=O)CC2Cc3ccccc3C2)nc1` (stereo partly drawn) [Example 15, N-((1S,2R)-3-(3-azabicyclo[3.1.0]hexan-3-yl)-1-hydroxy-1-(5-methoxypyridin-2-yl)propan-2-yl)-2-(2,3-dihydro-1H-inden-2-yl)acetamide], the results for the IC50 in test [1] and in test [2] were 9.3 nM and 21.3 nM, respectively.

As to `COc1ccc([C@@H](O)[C@@H](CN2CCC(C)(C)C2)NC(=O)CC2Cc3ccccc3C2)nc1` [Example 16, 2-(2,3-dihydro-1H-inden-2-yl)-N-((1S,2R)-3-(3,3-dimethylpyrrolidin-1-yl)-1-hydroxy-1-(5-methoxypyridin-2-yl)propan-2-yl)acetamide], the IC50 was above 1000 nM in test [1] and above 2000 nM in test [2].

In turn, `CC(C)(C)Oc1ccc([C@H](O)[C@H](CN2CCCC2)NC(=O)CC2Cc3ccccc3C2)nc1` [Example 18, N-((1R,2S)-1-(5-(tert-butoxy)pyridin-2-yl)-1-hydroxy-3-(pyrrolidin-1-yl)propan-2-yl)-2-(2,3-dihydro-1H-inden-2-yl)acetamide] displayed a half-maximal inhibitory concentration (IC50) in test [2] above 2000 nM.

Consider `O=C(CC1Cc2ccccc2C1)N[C@@H](CN1CCCC1)[C@@H](O)c1ccc(OC(F)(F)F)cn1` [Example 22, 2-(2,3-dihydro-1H-inden-2-yl)-N-((1R,2S)-1-hydroxy-3-(pyrrolidin-1-yl)-1-(5-(trifluoromethoxy)pyridin-2-yl)propan-2-yl)acetamide], for which the IC50 in test [2] is above 1000 nM.

Regarding `O=C(CC1Cc2ccccc2C1)N[C@H](CN1CCCC1)[C@H](O)c1ccnc(Cl)c1` [Example 27, N-((1R,2R)-1-(2-chloropyridin-4-yl)-1-hydroxy-3-(pyrrolidin-1-yl)propan-2-yl)-2-(2,3-dihydro-1H-inden-2-yl)acetamide], the IC50 in test [1] is 66.6 nM.
